Consider one compound from ChEMBL document CHEMBL5154870, “Discovery of novel glutaminase 1 allosteric inhibitor with 4-piperidinamine linker and aromatic heterocycles” (Eur J Med Chem, 2022).

In data set [1] the test system is HCT-116. As to the kind of experiment: Induction of apoptosis in human HCT-116 cells assessed as late apoptotic cells at 30 nM measured after 24 hrs by Annexin V-FITC/PI staining based flow cytometry method (reference value: 3.55 %). It counts as functional.
Data set [2] has as its system HCT-116. As to the kind of experiment: Antiproliferative activity against human HCT-116 cells overexpressing GLS1 assessed as inhibition of cell proliferation measured after 72 hrs by MTT assay. It counts as functional, cell-based. To be noted: HCT-116, 72 h. In general terms: Tetrazolium assays rely on reduction of a dye to a coloured formazan, in cell work by metabolically active cells.

The nature of data set [3]: AUC (0 to infinity) in Sprague-Dawley rat at 10 mg/kg, ip measured for 72 hrs by LC-MS/MS analysis. Type of data set: ADME, organism-based. Also on record: dose 10 mg/kg, time 72 hrs, route ip. To be noted: in vivo.
Data set [4] can be described thus: Half life in Sprague-Dawley rat at 10 mg/kg, ip measured for 72 hrs by LC-MS/MS analysis. Type of data set: ADME, organism-based. To be noted: in vivo.
Data set [5] has as its system HCT-116. Put plainly: Induction of apoptosis in human HCT-116 cells assessed as late apoptotic cells at 200 nM measured after 24 hrs by Annexin V-FITC/PI staining based flow cytometry method (reference value: 3.55 %). It counts as functional. For orientation: A flow cytometer gives signals particle by particle.
The nature of data set [6]: Bioavailability in Sprague-Dawley rat at 10 mg/kg, ip measured for 72 hrs by LC-MS/MS analysis. To be noted: in vivo. It counts as ADME, organism-based.
In the next data set the test system is MDA-MB-436. As to the kind of experiment: Antiproliferative activity against human MDA-MB-436 cells overexpressing GLS1 assessed as inhibition of cell proliferation measured after 72 hrs by MTT assay. Type of data set: functional, cell-based. The settings on record: MDA-MB-436, 72 h.
The nature of data set [7]: AUC (0 to t) in Sprague-Dawley rat at 10 mg/kg, ip measured for 72 hrs by LC-MS/MS analysis. Type of data set: ADME, organism-based. Also noted: time 72 hrs, dose 10 mg/kg, route ip. The settings on record: in vivo.
A short description of data set [8]: Metabolic stability in human plasma assessed as parent compound remaining at 1 uM measured after 2 hrs by LC-MS/MS analysis. It counts as ADME, cell-free. The settings on record: read-out: Stability.
Data set [9] relates to HCT-116. As to the kind of experiment: Induction of apoptosis in human HCT-116 cells assessed as early apoptotic cells at 50 nM measured after 24 hrs by Annexin V-FITC/PI staining based flow cytometry method (reference value: 4.65 %). It counts as functional.
The nature of data set [10]: Metabolic stability in human liver microsomes assessed as half life at 10 uM by LC-MS/MS analysis. It counts as ADME, Microsome. The settings on record: liver microsomes.
Data set [11] addresses T1, Glutaminase kidney isoform, mitochondrial (Homo sapiens) (UniProt O94925).
T1 sequence (whole entry): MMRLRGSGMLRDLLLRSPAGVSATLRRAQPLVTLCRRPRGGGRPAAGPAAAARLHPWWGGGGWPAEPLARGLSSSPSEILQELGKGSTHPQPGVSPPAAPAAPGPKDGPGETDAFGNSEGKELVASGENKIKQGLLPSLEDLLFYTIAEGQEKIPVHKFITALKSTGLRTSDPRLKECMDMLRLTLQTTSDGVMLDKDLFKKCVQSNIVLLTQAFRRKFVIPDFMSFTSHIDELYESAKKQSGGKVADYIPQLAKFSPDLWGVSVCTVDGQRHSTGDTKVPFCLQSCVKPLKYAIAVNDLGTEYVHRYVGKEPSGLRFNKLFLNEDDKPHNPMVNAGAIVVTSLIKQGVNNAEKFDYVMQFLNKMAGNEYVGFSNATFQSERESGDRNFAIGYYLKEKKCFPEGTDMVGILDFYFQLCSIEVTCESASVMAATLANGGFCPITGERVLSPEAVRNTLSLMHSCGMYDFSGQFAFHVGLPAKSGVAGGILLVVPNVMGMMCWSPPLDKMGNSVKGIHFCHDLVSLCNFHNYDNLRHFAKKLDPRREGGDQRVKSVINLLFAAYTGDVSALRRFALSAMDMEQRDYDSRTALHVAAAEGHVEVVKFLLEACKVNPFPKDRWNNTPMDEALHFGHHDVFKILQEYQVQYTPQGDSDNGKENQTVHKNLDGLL
To be noted: HCT-116, filed as negative allosteric modulator, dose 100-300 nM, time 12.0 hrs.

Data set [12] concerns HCT-116. Put plainly: Induction of apoptosis in human HCT-116 cells assessed as early apoptotic cells at 30 nM measured after 24 hrs by Annexin V-FITC/PI staining based flow cytometry method (reference value: 4.65 %). It counts as functional.
The nature of data set [13]: Apparent volume of distribution in Sprague-Dawley rat at 5 mg/kg, iv measured for 72 hrs by LC-MS/MS analysis. It counts as ADME, organism-based. To be noted: in vivo.
Data set [14] in a line: Cmax in Sprague-Dawley rat at 10 mg/kg, ip measured for 72 hrs by LC-MS/MS analysis. Type of data set: ADME, organism-based. The settings on record: in vivo. Also noted: dose 10 mg/kg, time 72 hrs, route ip.
Data set [15] deals with HCT-116. As to the kind of experiment: Induction of apoptosis in human HCT-116 cells assessed as late apoptotic cells at 50 nM measured after 24 hrs by Annexin V-FITC/PI staining based flow cytometry method (reference value: 3.55 %). Type of data set: functional.
Data set [16] relates to HCT-116. As to the kind of experiment: Induction of apoptosis in human HCT-116 cells assessed as necrotic cells at 200 nM measured after 24 hrs by Annexin V-FITC/PI staining based flow cytometry method (reference value: 0.48 %). It counts as functional.
Data set [17] addresses T2, Glutaminase kidney isoform, mitochondrial (Homo sapiens, UniProt O94925).
T2 sequence (O94925 whole entry): T1 sequence (whole entry)
Put plainly: Allosteric inhibition of human GLS1 using glutamine as substrate incubated for 60 mins by NADH/NADPH-based absorbance analysis.

The source made the active and inactive calls. The rule behind the calls is not given here.

`O=C(Cc1ccccc1)Nc1nnc(NC2CCN(c3nnc(NC(=O)c4nccn4Cc4ccc(C(F)(F)F)cc4)s3)CC2)s1`: the Activity in the data set with HCT-116 [1] is recorded as 4.99%; with HCT-116 [5], 13.2%; with HCT-116 [9], 23.4%; in the data set with HCT-116 [12], 13.6%; in the data set with HCT-116 [15] it was 5.4%; in the data set with HCT-116 [16], 0.02%. Further, the IC50 with HCT-116 [2] was found to be 51 nM; in the data set on MDA-MB-436 it was 370 nM; in data set [17], 11.9 nM. Further, the AUC(0-inf) in data set [3] stood at 3490 ng·h/mL. The compound also had a half-life in [4] of 8.92 h. Besides, in data set [6], the bioavailability came to 20.9%. This compound gave an AUC(0-t) at 72 h in [7] of 2900 ng·h/mL. Also, in data set [8], the remaining at 2 h, 1 µM came to 96%. Also, the half-life at 10 µM in data set [10] turned out to be 3.24 h. Besides, in data set [11], the inhibition result is “Active”. For the same compound, in [13], the Vd/F came to 7.31 L/kg. The Cmax in [14] was determined as 262 ng/mL.

One may read the IC50 as the concentration at which inhibition is half-maximal. The AUC(0-inf) is total exposure, with the tail of the curve extrapolated. A lower AUC(0-inf) goes with less exposure. By half-life is commonly meant the time in which the quantity being followed falls by half. Usually bioavailability stands for dose-corrected exposure relative to a reference, in per cent. A higher bioavailability goes with much systemic uptake. As a reminder, the AUC(0-t) is the area under the concentration-time curve up to a stated or last time point. A low value points to low exposure. For orientation: Vd/F means the apparent distribution volume after extravascular dosing. The Cmax is the highest concentration seen after dosing.
